Laboratory results as given in ChEMBL document CHEMBL3525933 (Drug Metab Dispos, 2012).

Tests used:
Format in all cases: ADME, organism-based
[1] = Drug excretion in streptozotocin-induced diabetic Wistar rat feces treated with mangiferin at 400 mg/kg, po administered as single dose by HPLC-DAD analysis; set-up: dose 400 mg/kg, route oral; settings: in vivo
[2] = Drug excretion in conventional Wistar rat feces treated with mangiferin at 400 mg/kg, po administered as single dose by HPLC-DAD analysis; set-up: dose 400 mg/kg, route oral; settings: in vivo
[3] = species: Rattus norvegicus; assay: Drug retention time in Wistar rat by HPLC-DAD analysis
[4] = Drug excretion in conventional Wistar rat urine treated with mangiferin at 400 mg/kg, po administered as single dose by HPLC-DAD analysis; set-up: dose 400 mg/kg, route oral; settings: in vivo
[5] = Drug excretion in streptozotocin-induced diabetic Wistar rat urine treated with mangiferin at 400 mg/kg, po administered as single dose by HPLC-DAD analysis; set-up: dose 400 mg/kg, route oral; settings: in vivo

Drug excretion [1] | Drug excretion [2] | Retention_time [3] | Drug excretion [4] | Drug excretion [5] | Compound
metabolite_detected | metabolite_detected | 36 min | metabolite_detected | metabolite_detected | O=c1c2cc(O)c(O)cc2oc2cc(O)cc(O)c12
 |  | 40.4 min |  | metabolite_detected | O=c1c2cc(O)ccc2oc2cccc(O)c12
